Positions of bridges follow the written chain, without caps; N, C: chain ends. Non-standard residues stand in square brackets, D forms with d. Residues, ends and D or L forms follow the SMILES beside them. 2Thi = N[C@@H](Cc1cccs1)C(=O)O; Cha = N[C@@H](CC1CCCCC1)C(=O)O
Molecular target: T1, endothelin receptor (Bos taurus, UniProt P28088)
T1 construct: the suspension was used as a membrane fraction liquid; from tissue; host or cells: bovine cerebellum membrane fraction
T1 sequence (P28088 27-441): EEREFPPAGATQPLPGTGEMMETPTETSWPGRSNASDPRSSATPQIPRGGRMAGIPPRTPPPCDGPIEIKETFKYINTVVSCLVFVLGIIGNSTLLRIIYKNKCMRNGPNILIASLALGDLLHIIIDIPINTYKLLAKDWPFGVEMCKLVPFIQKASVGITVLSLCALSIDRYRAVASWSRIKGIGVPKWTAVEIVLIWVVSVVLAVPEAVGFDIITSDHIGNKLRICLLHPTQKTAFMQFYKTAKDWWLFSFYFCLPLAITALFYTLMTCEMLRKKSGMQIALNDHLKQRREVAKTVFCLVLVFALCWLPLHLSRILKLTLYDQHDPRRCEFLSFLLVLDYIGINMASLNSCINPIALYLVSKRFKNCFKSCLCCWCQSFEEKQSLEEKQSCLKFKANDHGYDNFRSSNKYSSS
Assay: Endothelin receptor-antagonizing activity: inhibition of 125I-endothelin-1 binding to bovine cerebellum membrane fraction
Conditions: 125I-Endothelin-1, bovine cerebellum membrane fraction, 25° C. for 2 hours; read-out: IC50: Concentration causing 50% inhibition of endothelin1 binding
Description: Bovine cerebellum tissue was homogenized at 4° C. by using POLYTRON (type PT10/35, manufactured by Kinematic Gmbh Co.) in a buffer solution A (1 mM NaHCO3, 5 mM ethylenediaminetetraacetic acid, 5 μg/ml leupeptin, 5 μg/ml pepstatin A, 40 μM phenylmethylsulfonyl fluoride, pH 8.3).
The obtained suspension was centrifuged for 10 minutes at 8,000 G and 4° C., and the resulting supernatant was centrifuged for 60 minutes at 40,000 G and 4° C. to obtain pellets. The obtained pellets were suspended in a buffer solution A and again centrifuged for 60 minutes at 40,000 G and 4° C. The resulting solid substance was prepared as a suspension containing 2 mg/ml of protein, and the suspension was used as a membrane fraction liquid. […] These mixtures were incubated at 25° C. for 2 hours, and then filtered with a GF/B glass filter (produced by Whatman Co.). […] The inhibition ratio against endothelin receptor binding activity was calculated according to the following equation:
Inhibition ratio (%)=(C-A/C-B)×100
B: Radioactivity in the presence of unlabelled endothelin-1
C: Radioactivity in the absence of both of the compound shown in Table 2 and unlabelled endothelin-1

Molecule | IC50 [nM]
CC[C@H](C)[C@H](NC(=O)[C@H](CC1CCCCC1)NC(=O)[C@@H](NC(=O)[C@H](CC(C)C)NC(=O)[C@H](Cc1c[nH]cn1)NC(=O)[C@H](C)NC(=O)[C@H](Cc1ccccc1)NC(=O)[C@H](Cc1ccc(O)cc1)NC(=O)[C@@H](NC(=O)[C@H](Cc1c[nH]c2ccccc12)NC(=O)[C@H](CC(=O)O)NC(=O)[C@@H]1CCCN1C(=O)[C@H](C)NC(=O)[C@@H](NC(=O)CNC(=O)[C@H](Cc1c[nH]cn1)NC(=O)[C@H](Cc1c[nH]c2ccccc12)NC(=O)[C@H](CC(N)=O)NC(=O)CN)[C@@H](C)O)C(C)C)[C@@H](C)O)C(=O)N[C@@H](Cc1c[nH]c2ccccc12)C(=O)O [Compound 14, HGlyAsnTrpHisGlyThrAlaProAspTrpValTyrPheAlaHisLeuThrChaIleTrpOH] (H-GNWHGTAPDWVYFAHLT[Cha]IW-OH) | 12
CC[C@H](C)[C@H](NC(=O)[C@H](Cc1cccs1)NC(=O)[C@@H](NC(=O)[C@H](CC(C)C)NC(=O)[C@H](Cc1c[nH]cn1)NC(=O)[C@H](C)NC(=O)[C@H](Cc1ccccc1)NC(=O)[C@H](Cc1ccc(O)cc1)NC(=O)[C@@H](NC(=O)[C@H](Cc1c[nH]c2ccccc12)NC(=O)[C@H](CC(=O)O)NC(=O)[C@@H]1CCCN1C(=O)[C@H](C)NC(=O)[C@@H](NC(=O)CNC(=O)[C@H](Cc1c[nH]cn1)NC(=O)[C@H](Cc1c[nH]c2ccccc12)NC(=O)[C@H](CC(N)=O)NC(=O)CN)[C@@H](C)O)C(C)C)[C@@H](C)O)C(=O)N[C@@H](Cc1c[nH]c2ccccc12)C(=O)O [Compound 17, HGlyAsnTrpHisGlyThrAlaProAspTrpValTyrPheAlaHisLeuThrThiIleTrpOH] (H-GNWHGTAPDWVYFAHLT[2Thi]IW-OH) | 0.12
CC[C@H](C)[C@H](NC(=O)[C@H](CC(=O)O)NC(=O)[C@H](CC(C)C)NC(=O)[C@H](Cc1c[nH]cn1)NC(=O)[C@H](C)NC(=O)[C@H](Cc1ccccc1)NC(=O)[C@H](Cc1ccc(O)cc1)NC(=O)[C@@H](NC(=O)[C@H](Cc1c[nH]c2ccccc12)NC(=O)[C@@H]1CC(=O)NCC(=O)N[C@@H](Cc2ccc(O)cc2)C(=O)N2CCC[C@H]2C(=O)N[C@@H](Cc2c[nH]c3ccccc23)C(=O)N[C@@H](Cc2c[nH]c3ccccc23)C(=O)N[C@@H](CC(N)=O)C(=O)N[C@@H](Cc2ccc(O)cc2)C(=O)N[C@@H](CCCNC(=N)N)C(=O)N1)C(C)C)C(=O)N[C@H](C(=O)N[C@@H](Cc1c[nH]c2ccccc12)C(=O)O)[C@@H](C)CC [Compound 52] (GYPWWNYRDWVYFAHLDIIW-OH; lactam N-9) | 19
CC[C@H](C)[C@H](NC(=O)[C@H](CC(=O)O)NC(=O)[C@H](CC(C)C)NC(=O)[C@H](Cc1c[nH]cn1)NC(=O)[C@H](C)NC(=O)[C@H](Cc1ccccc1)NC(=O)[C@H](Cc1ccc(O)cc1)NC(=O)[C@@H](NC(=O)[C@H](Cc1c[nH]c2ccccc12)NC(=O)[C@@H]1CC(=O)NCC(=O)N[C@@H](CO)C(=O)N[C@@H](C)C(=O)N[C@@H](C)C(=O)N[C@@H](C(C)C)C(=O)N[C@@H](Cc2ccc(O)cc2)C(=O)N[C@@H](Cc2ccccc2)C(=O)N1)C(C)C)C(=O)N[C@H](C(=O)N[C@@H](Cc1c[nH]c2ccccc12)C(=O)O)[C@@H](C)CC [Compound 53] (GSAAVYFDWVYFAHLDIIW-OH; lactam N-8) | 2.4
H-GDWKGTSPDWVYFAHLDIIW-OH [Compound 6, HGlyAspTrpLysGlyThrSerProAspTrpValTyrPheAlaHisLeuAsplleIleTrpOH] | 0.11
H-GNWHGGAPDWVYFAHLDIIW-OH [Compound 3] | 0.064
H-GNWHGTAADWVYFAHLSMIW-OH [Compound 46] | 0.8
H-GNWHGTAPDAVYFAHLDIIW-OH [Compound 4, HGlyAsnTrPHisGlyThrAlaProAspAlaValTyrPheAlaHisLeuAspIleIleTrpOH] | 0.22
H-GNWHGTAPDWFAHLDIIW-OH [Compound 11, HGlyAsnTrpHisGlyThrAlaProAspTrpPheAlaHisLeuAspIleIleTrpOH] | 6.1
H-GNWHGTAPDWPYFAHLDIIW-OH [Compound 47] | 4.2
H-GNWHGTAPDWVYFAHLDIIF-OH [Compound 5] | 11
H-GNWHGTAPDWVYFAHLDLIW-OH [Compound 16] | 5.4
H-GNWHGTAPDWVYFAHLEIIW-OH [Compound 43] | 17
H-GNWHGTAPDWVYFAHLNYIW-OH [Compound 20] | 12
H-GNWHGTAPDWVYFAHLSMIW-OH [Compound 21] | 0.96
H-GNWHGTAPDWVYFAHLTLIW-OH [Compound 13] | 2.9
H-GNWHGTAPDWVYFAHLTMIW-OH [Compound 18] | 1.7
H-GNWHGTAPDWVYFAHLTYIW-OH [Compound 19] | 1.2
H-GNWHGTAPDWYFAHLDIIW-OH [Compound 10, HGlyAsnTrpHisGlyThrAlaProAspTrpTyrPheAlaHisLeuAspIleIleTrpOH] | 0.57
H-GNWHTTAPDWVYFAHLDIIW-OH [Compound 2, HGlyAsnTrpHisThrThrAlaProAspTrpValTyrPheAlaHisLeuAspIleleTrpOH] | 0.061
H-HGTAPDWVYFAHLDIIW-OH [Compound 9, HHisGlyThrAlaProAspTrpValTyrPheAlaHisLeuAspIleIleTrpOH] | 0.088
H-NWHGTAPDWVYFAHLDIIW-OH [Compound 7, HAsnTrpHisGlyThrAlaProAspTrpValTyrPheAlaHisLeuAspIleIleTrpOH] | 0.1
H-VYFSHLDIIW-OH [Compound w, H-Val-Tyr-Phe-Ser-His-Leu-Asp-Ile-Ile-Trp-OH, reference compound] | > 1000
H-WHGTAPDWVYFAHLDIIW-OH [Compound 8, HTrpHisGlyThrAlaProAspTrpValTyrPheAlaHisLeuAspIleIleTrpOH] | 0.076

Test system: ET-1 contraction of rat thoracic aorta ring
Assay: Inhibitory effect on ET-1 contraction (ring specimen of extracted rat thoracic aorta)
Conditions: compound 10^-7 M, ET-1 3×10^-9 M, Sprague-Dawley rat thoracic aorta ring, tension relative to norepinephrine maximum
Description: Test Example 2: Inhibitory Effect On ET-1 Contraction (ring specimen of extracted rat thoracic aorta)
Male Sprague-Dawley rats (Slc. 450-550 g) were anesthetized by intravenous injection of 50 mg/kg of sodium pentobarbital (Nembutal™, Dynabot), and the heads thereof were then incised to die by bleeding. The breasts of the rats were then incised to extract the thoracic aortas therefrom. After the connective tissue which adhered to the blood vessels were removed in a nutrient solution, the blood vessels were cut into rings (3-4 mm), and two metallic holders (one of which was fixed to a support rod) were passed through the blood vessel to prepare a specimen. One end of the holder was mounted on a tension transducer (TB-611T, produced by Nihon Koden) through silk yarn, and the specimen was suspended in a Magnus' tube containing a nutrient solution. Resting tension (1.5 g) was applied to the specimen, and the nutrient solution was replaced several times until the tension was stabilized. Norepinephrine [(±) hydrochloride, Sigma] (10-20 μM) was then added, and the tension generated by contraction of the specimen was measured to determine the maximum value of the tension. The tension generated was detected by the tension transducer, amplified by a pressure strain amplifier (AP-621G, produced by Nihon Koden) and then recorded by a pen recorder (TYPE3066, YOKOGAWA). After the specimen was washed several times to remove Norepinephrine, each of the compounds shown in Table 3 which was dissolved in distilled water was added to the nutrient solution so that the concentration thereof was 10^-7 M, or only distilled water was added thereto in the same volume. […] After the specimens were allowed to stand for 10 minutes, ET-1 was successively added to the nutrient solutions so that the concentration thereof was 3×10^-9 M, and the tension of each of the specimens was measured. The relative value to the maximum tension previously determined was calculated, and the inhibitory effect (% inhibition) on contraction due to ET-1 was determined according to the following equation. […]

Molecule | % inhibition of contraction due to ET-1 [%]
CC[C@H](C)[C@H](NC(=O)[C@H](CC1CCCCC1)NC(=O)[C@@H](NC(=O)[C@H](CC(C)C)NC(=O)[C@H](Cc1c[nH]cn1)NC(=O)[C@H](C)NC(=O)[C@H](Cc1ccccc1)NC(=O)[C@H](Cc1ccc(O)cc1)NC(=O)[C@@H](NC(=O)[C@H](Cc1c[nH]c2ccccc12)NC(=O)[C@H](CC(=O)O)NC(=O)[C@@H]1CCCN1C(=O)[C@H](C)NC(=O)[C@@H](NC(=O)CNC(=O)[C@H](Cc1c[nH]cn1)NC(=O)[C@H](Cc1c[nH]c2ccccc12)NC(=O)[C@H](CC(N)=O)NC(=O)CN)[C@@H](C)O)C(C)C)[C@@H](C)O)C(=O)N[C@@H](Cc1c[nH]c2ccccc12)C(=O)O [Compound 14, HGlyAsnTrpHisGlyThrAlaProAspTrpValTyrPheAlaHisLeuThrChaIleTrpOH] (H-GNWHGTAPDWVYFAHLT[Cha]IW-OH) | 47.0
CC[C@H](C)[C@H](NC(=O)[C@H](Cc1cccs1)NC(=O)[C@@H](NC(=O)[C@H](CC(C)C)NC(=O)[C@H](Cc1c[nH]cn1)NC(=O)[C@H](C)NC(=O)[C@H](Cc1ccccc1)NC(=O)[C@H](Cc1ccc(O)cc1)NC(=O)[C@@H](NC(=O)[C@H](Cc1c[nH]c2ccccc12)NC(=O)[C@H](CC(=O)O)NC(=O)[C@@H]1CCCN1C(=O)[C@H](C)NC(=O)[C@@H](NC(=O)CNC(=O)[C@H](Cc1c[nH]cn1)NC(=O)[C@H](Cc1c[nH]c2ccccc12)NC(=O)[C@H](CC(N)=O)NC(=O)CN)[C@@H](C)O)C(C)C)[C@@H](C)O)C(=O)N[C@@H](Cc1c[nH]c2ccccc12)C(=O)O [Compound 17, HGlyAsnTrpHisGlyThrAlaProAspTrpValTyrPheAlaHisLeuThrThiIleTrpOH] (H-GNWHGTAPDWVYFAHLT[2Thi]IW-OH) | 61.3
H-GNWHGTAPDWVYFAHLSMIW-OH [Compound 21] | 40.4
